Test results published in ChEMBL document CHEMBL1131946, “Synthesis and evaluation of backbone/amide-modified analogs of leualacin” (Bioorg Med Chem Lett, 1999).

Columns and labels:
[1] = Inhibitory effect against TXB2 formation in response to arachidonic acid-induced platelet aggregation at a concentration of 100 uM; assay type: functional
[2] = Inhibitory effect against TXB2 formation in response to collagen-induced platelet aggregation at a concentration of 100 ug/mL; assay type: functional
[3] = Inhibitory effect against U-46,619-induced platelet aggregation at a concentration of 1 uM; assay type: functional
[4] = Inhibitory effect against arachidonic acid-induced platelet aggregation at a concentration of 100 uM; assay type: functional
Rattus norvegicus [5] = species: Rattus norvegicus; experiment: vasodilatory effect for [Ca2+] antagonism in aortic arch isolated from WKY rats at a concentration of 0.01 uM; assay type: functional, Pharyngeal arch artery
Rattus norvegicus [6] = species: Rattus norvegicus; experiment: vasodilatory effect for [Ca2+] antagonism in aortic arch isolated from WKY rats at a concentration of 0.1 uM; assay type: functional, Pharyngeal arch artery
Rattus norvegicus [7] = species: Rattus norvegicus; experiment: vasodilatory effect for [Ca2+] antagonism in aortic arch isolated from WKY rats at a concentration of 1 uM; assay type: functional, Pharyngeal arch artery
[8] = Inhibitory effect against collagen-induced platelet aggregation at a concentration of 100 ug/mL; assay type: functional
Rattus norvegicus [9] = species: Rattus norvegicus; experiment: vasodilatory effect for [Ca2+] antagonism in aortic arch isolated from WKY rats at a concentration of 100 uM; assay type: functional, Pharyngeal arch artery
Rattus norvegicus [10] = species: Rattus norvegicus; experiment: vasodilatory effect for [Ca2+] antagonism in aortic arch isolated from WKY rats at a concentration of 10 uM; assay type: functional, Pharyngeal arch artery

CC(C)C[C@@H]1NC(=O)[C@@H](CC(C)C)NC(=O)CCNC(=O)[C@H](Cc2ccccc2)N(C)C(=O)[C@H](CC(C)C)OC1=O
Amount of TXB2 formation [1]: 30.7 ng/mL | Amount of TXB2 formation [2]: 25.6 ng/mL | IC50 [3]: 40 µM | IC50 [4]: 30 µM | Vasodilatory rate (Rattus norvegicus [5]): 29.3% | Vasodilatory rate (Rattus norvegicus [6]): 35% | Vasodilatory rate (Rattus norvegicus [7]): 100% | IC50 [8]: 10 µM

CC(C)C[C@@H]1NC(=O)[C@@H](CC(C)C)NC(=O)CCN(C)C(=O)[C@H](Cc2ccccc2)N(C)C(=O)[C@H](CC(C)C)OC1=O
IC50 [3]: > 200 µM | IC50 [4]: > 200 µM | IC50 [8]: > 150 µM

CC(C)C[C@@H]1NC(=O)[C@@H](CC(C)C)OC(=O)CCN(C)C(=O)[C@H](Cc2ccccc2)N(C)C(=O)[C@H](CC(C)C)OC1=O
IC50 [3]: > 200 µM | IC50 [4]: > 200 µM | Vasodilatory rate (Rattus norvegicus [5]): 11.5% | Vasodilatory rate (Rattus norvegicus [6]): 32.5% | Vasodilatory rate (Rattus norvegicus [9]): 78% | Vasodilatory rate (Rattus norvegicus [10]): 80.8% | Vasodilatory rate (Rattus norvegicus [7]): 25.1% | IC50 [8]: > 150 µM

CC(C)C[C@@H]1NC(=O)[C@@H](CC(C)C)OC(=O)CCNC(=O)[C@H](Cc2ccccc2)N(C)C(=O)[C@H](CC(C)C)OC1=O
Amount of TXB2 formation [1]: 55.4 ng/mL | Amount of TXB2 formation [2]: 39.4 ng/mL | IC50 [3]: 150 µM | IC50 [4]: 150 µM | Vasodilatory rate (Rattus norvegicus [9]): 66.5% | Vasodilatory rate (Rattus norvegicus [10]): 64.4% | Vasodilatory rate (Rattus norvegicus [7]): 26.8% | IC50 [8]: 50 µM
